Source: patent US20260325538A1, “THERAPY” (priority 2023, published 2026)

Test system: Pseudomonas aeruginosa ST773 (NDM-1, OXA-395, PDC-16)
Assay: Checkerboard MIC, fixed concentration of sBLI (Examples 18-23)
Assay type: cell-based
Source text: The antibiotics and serine β-lactamase-inhibitors (sBLIs) were purchased from the following suppliers: Ceftazidime (CAZ): Sigma-Aldrich; Cefepime (FEP): Sigma-Aldrich; Cefpodoxime (CEFP): MedChemExpress; Sulbactam (SUL): Sigma-Aldrich Avibactam (AVI): Biosynth; Vaborbactam (VAB): ABCR; Tazobactam (TAZ): Sigma-Aldrich; Taniborbactam (TAN): Sigma-Aldrich.
In each of Examples 3-23, the compound of Example 26 of WO 2018/033719 was employed as the zinc chelator. The following abbreviations are used in these examples: sBLI means serine-β-lactamase inhibitor; CFU means colony-forming unit, which is a group of microbes that grows from a single cell on a petri plate; DMSO means dimethyl sulfoxide; MHB means Mueller-Hinton broth; caMHB means cation-adjusted Mueller-Hinton broth; MIC means minimum inhibitory concentration—the lower the MIC, the more efficient the combination against the respective bacterial strain.
General Protocol 2 Used in Examples 11-23 Employing a Fixed Concentration of sBLI within Each Experiment:
Antimicrobial susceptibility testing (AST) by broth microdilution (MIC determination) was performed according to The European Committee on Antimicrobial Susceptibility Testing (EUCAST) guidelines (see Reading guide for broth microdilution Version 5.0, 2024: https://www.eucast.org).
Sterile clear round bottom polystyrene (non-treated) 96-well microplates (Corning 3788) were used for making serial two-fold dilutions of the antibiotic in cation-adjusted Mueller Hinton II broth (caMHB; Thermo Scientific, T3462, containing 29.4 μM Zn^2+ or MILLIPORE, 90922-500G, containing 5.6 μM Zn^2+), across the columns of the microtiter plate (128-0.06 μg/mL; columns 1-12).
The checkerboard plates were all modified by adding a serine β-lactamase inhibitor (sBLI) at a fixed concentration of 16 μg/mL. Additionally, the zinc chelator was added at various fixed concentrations. Samples were mixed so that all plates contained a control containing antibiotic alone (no sBLI, no zinc chelator), a sample containing antibiotic and sBLI (double combination; no zinc chelator), and a sample containing antibiotic, sBLI and zinc chelator (triple combination). All test wells used in each plate contained growth medium (caMHB), and inoculated bacteria at a final inoculum between 3-7×10^5 CFU/mL. […] Synergy for the triple combination (antibiotic, sBLI, and zinc chelator) was defined as when the MIC in any of the rows containing the zinc chelator in combination with antibiotic and sBLI (triple combination), was lower than for antibiotic alone and lower than for the antibiotic and sBLI double combination.
(§1) An X in rows 1-4 in the table indicates growth of the bacterial inoculum, while a blank cell indicates no growth. Concentrations (μg/mL) of CAZ are given in row 0. AVI and the zinc chelator were added in fixed concentrations (AVI at 16 μg/mL in rows 2-4, zinc chelator at 16 μg/mL in row 3 and at 8 μg/mL in row 4). As a control, the effect of CAZ alone was tested (row 1). All wells contained bacterial growth medium (caMHB, 29.4 μM Zn^2+) and were inoculated with the test bacterium. The grey cells indicate the CAZ MIC.
as §1, with “FEP” for “CAZ”, “SUL” for “AVI”, “(SUL” for “(AVI”
An X in rows 1-5 in the table indicates growth of the bacterial inoculum, while a blank cell indicates no growth. Concentrations (μg/mL) of CAZ are given in row 0. AVI and the zinc chelator were added in fixed concentrations (AVI at 16 μg/mL in rows 2-5, zinc chelator at 16 μg/mL in row 3, at 8 μg/mL in row 4, and at 4 μg/mL in row 5). […]

Measured: synergy with the zinc chelator

CN(C[C@H](O)[C@@H](O)[C@H](O)[C@H](O)CO)C(=O)c1ccc(CN(Cc2ccccn2)Cc2ccccn2)nc1 [zinc chelator]
Synergy: zinc chelator 4 μg/mL, with FEP and AVI 16 μg/mL, caMHB 5.6 μM Zn2+ | zinc chelator 4 μg/mL, with FEP and SUL 16 μg/mL, caMHB 5.6 μM Zn2+ | zinc chelator 8 μg/mL, with CAZ and AVI 16 μg/mL, caMHB 5.6 μM Zn2+ | zinc chelator 8 μg/mL, with CAZ and AVI 16 μg/mL, caMHB 29.4 μM Zn2+ | zinc chelator 8 μg/mL, with FEP and AVI 16 μg/mL, caMHB 5.6 μM Zn2+ | zinc chelator 8 μg/mL, with FEP and SUL 16 μg/mL, caMHB 5.6 μM Zn2+ | zinc chelator 8 μg/mL, with FEP and TAZ 16 μg/mL, caMHB 5.6 μM Zn2+ | zinc chelator 16 μg/mL, with CAZ and AVI 16 μg/mL, caMHB 5.6 μM Zn2+ | zinc chelator 16 μg/mL, with CAZ and AVI 16 μg/mL, caMHB 29.4 μM Zn2+ | zinc chelator 16 μg/mL, with FEP and AVI 16 μg/mL, caMHB 5.6 μM Zn2+ | zinc chelator 16 μg/mL, with FEP and SUL 16 μg/mL, caMHB 5.6 μM Zn2+ | zinc chelator 16 μg/mL, with FEP and SUL 16 μg/mL, caMHB 29.4 μM Zn2+ | zinc chelator 16 μg/mL, with FEP and TAZ 16 μg/mL, caMHB 5.6 μM Zn2+
